Experimental data published in patent publication US8188129B2, “(−)-enantiomer of the 2-[2-(1-chloro-cyclopropyl)-3-(2-chlorophenyl)-2-hydroxypropyl]-2,4-dihydro-[1,2,4]-triazole-3-thione” (Bayer Aktiengesellschaft, priority 1999, dated 2012).

How the values were obtained:
Cochliobolus sativus = Cochliobolus sativus test (barley)/protective; conditions: protective spray, evaluation 7 days after inoculation
Description: After the spray coating has dried on, the plants are sprayed with a conidia suspension of Cochiliobolus sativus. The plants remain in an incubation cabin at 20° C. and 100% relative atmospheric humidity for 48 hours.
The plants are placed in a greenhouse at a temperature of 20° C. and a relative atmospheric humidity of approximately 80%.
Evaluation is carried out 7 days after the inoculation.

Uncinula necator = test: Uncinula test (vine)/protective; type: in vivo; conditions: protective spray, application rate 10 g/ha, evaluation 14 days after inoculation
Pyricularia oryzae = type: in vivo; conditions: rice, protective spray, application rate 375 g/ha, evaluation 4 days after inoculation
Venturia inaequalis = test: Venturia test (apple)/curative; conditions: curative spray, application rate 1 g/ha, evaluation 12 days after inoculation
Description: To test for curative activity, young plants are inoculated with an aqueous conidia suspension of the apple scab pathogen Venturia inaequalis. The plants remain in an incubation cabin at approximately 20° C. and 100% relative atmospheric humidity for 1 day and are then placed in a greenhouse.
The plants are then placed in a greenhouse at approximately 21° C. and a relative atmospheric humidity of approximately 90%.
Evaluation is carried out 12 days after the inoculation.

Podosphaera leucotricha = test: Podosphaera test (apple)/protective; type: in vivo; conditions: protective spray, application rate 10 g/ha, evaluation 10 days after inoculation

Structure (SMILES) | Efficacy in % (Cochliobolus sativus; application rate 125 g/ha) | Efficacy in % (Cochliobolus sativus; application rate 250 g/ha) | Efficacy in % (Uncinula necator) | Efficacy in % (Pyricularia oryzae) | Efficacy in % (Venturia inaequalis) | Efficacy in % (Podosphaera leucotricha)
OC(Cc1ccccc1Cl)(Cn1nc[nH]c1=S)C1(Cl)CC1 (racemic) [(Ia), racemic 2-[2-(1-chloro-cyclopropyl)-3-(2-chloro-phenyl)-2-hydroxypropyl]-2,4-dihydro-[1,2,4]-triazole-3-thione] | 59% | 66% | 47% | 30% | 79% | 60%
OC(Cc1ccccc1Cl)(Cn1nc[nH]c1=S)C1(Cl)CC1 (single isomer, unassigned; (-)) [(I), (−)-enantiomer of 2-[2-(1-chloro-cyclopropyl)-3-(2-chlorophenyl)-2-hydroxypropyl]-2,4-dihydro-[1,2,4]-triazole-3-thione] | 75% | 75% | 84% | 90% | 91% | 78%
